Source: PubChem BioAssay (NCI)
Several values for one entry are separate records, joined by “and”; a condition that tells them apart may be missing. Identical values can stand only once.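 Where inhibition never reached the appropriate level, the endpoint shown equals the highest concentration tested. Otherwise, values were interpolated linearly from a five-concentration, 48-hour dose response in 96-well plates. GI50 marks 50% less growth. TGI denotes the concentration required for complete inhibition of growth.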

Experiments:
Experiment in all cases: NCI tumour cell line growth inhibition, 48 h
[1] = tested on: 786-0 renal
[2] = tested on: A498 renal
[3] = tested on: A549 NSCLC
[4] = tested on: ACHN renal
[5] = tested on: BT-549 breast
[6] = tested on: CAKI-1 renal
[7] = tested on: CCRF-CEM leukemia
[8] = tested on: COLO 205 colon
[9] = tested on: DU-145 prostate
[10] = tested on: EKVX NSCLC
[11] = tested on: HCC-2998 colon
[12] = tested on: HCT-116 colon
[13] = tested on: HCT-15 colon
[14] = tested on: HL-60(TB) leukemia
[15] = tested on: HOP-62 NSCLC
[16] = tested on: HS 578T breast
[17] = tested on: HT29 colon
[18] = tested on: IGROV1 ovarian
[19] = tested on: K-562 leukemia
[20] = tested on: KM12 colon
[21] = tested on: LOX IMVI melanoma
[22] = tested on: M14 melanoma
[23] = tested on: MALME-3M melanoma
[24] = tested on: MCF7 breast
[25] = tested on: MDA-MB-231 breast
[26] = tested on: MDA-MB-435
[27] = tested on: MDA-N
[28] = tested on: MOLT-4 leukemia
[29] = tested on: NCI-H226 lung
[30] = tested on: NCI-H23 lung
[31] = tested on: NCI-H460 lung
[32] = tested on: NCI-H522 lung
[33] = tested on: NCI/ADR-RES ovarian
[34] = tested on: OVCAR-3 ovarian
[35] = tested on: OVCAR-4 ovarian
[36] = tested on: OVCAR-5 ovarian
[37] = tested on: OVCAR-8 ovarian
[38] = tested on: PC-3 prostate
[39] = tested on: RPMI-8226 leukemia
[40] = tested on: SF-268 CNS
[41] = tested on: SF-295 CNS
[42] = tested on: SF-539 CNS
[43] = tested on: SK-MEL-2 melanoma
[44] = tested on: SK-MEL-28 melanoma
[45] = tested on: SK-MEL-5 melanoma
[46] = tested on: SK-OV-3 ovarian
[47] = tested on: SN12C renal
[48] = tested on: SNB-19 CNS
[49] = tested on: SNB-75 CNS
[50] = tested on: SR leukemia
[51] = tested on: SW-620 colon
[52] = tested on: T-47D breast
[53] = tested on: TK-10 renal
[54] = tested on: U251 CNS
[55] = tested on: UACC-257 melanoma
[56] = tested on: UACC-62 melanoma
[57] = tested on: UO-31 renal
[58] = tested on: RXF 393 renal
[59] = tested on: HOP-92 NSCLC

Compound `COC(=O)C1Cc2cc3c(cc2C1=O)CCCC3` (configuration not stated) has a TGI [1] of over 100 µM, a TGI [2] of over 100 µM and a TGI [3] of over 100 µM. For the same compound, the TGI [4] was over 100 µM, the TGI [5] was over 100 µM and the TGI [6] was over 100 µM. For the same compound, the TGI [7] was over 100 µM, the TGI [8] was over 100 µM and the TGI [9] was over 100 µM. It also gave a TGI [10] of over 100 µM, a TGI [11] of over 100 µM and a TGI [12] of over 100 µM. The TGI [13] was over 100 µM, the TGI [14] was over 100 µM and the TGI [15] was over 100 µM. The TGI [16] was over 100 µM, the TGI [17] was over 100 µM and the TGI [18] was over 100 µM. The TGI [19] was over 100 µM, the TGI [20] was over 100 µM and the TGI [21] was over 100 µM. The TGI [22] was over 100 µM, the TGI [23] was over 100 µM and the TGI [24] was over 100 µM. It also gave a TGI [25] of over 100 µM, a TGI [26] of over 100 µM and a TGI [27] of over 100 µM. It also gave a TGI [28] of over 100 µM, a TGI [29] of 87 µM and a TGI [30] of over 100 µM. The TGI [31] was over 100 µM, the TGI [32] was over 100 µM and the TGI [33] was over 100 µM. For the same compound, the TGI [34] was over 100 µM, the TGI [35] was over 100 µM and the TGI [36] was over 100 µM. For the same compound, the TGI [37] was over 100 µM, the TGI [38] was over 100 µM and the TGI [39] was over 100 µM. The TGI [40] was over 100 µM, the TGI [41] was over 100 µM and the TGI [42] was over 100 µM. It also gave a TGI [43] of over 100 µM, a TGI [44] of over 100 µM and a TGI [45] of over 100 µM. The TGI [46] was over 100 µM, the TGI [47] was over 100 µM and the TGI [48] was over 100 µM. It also gave a TGI [49] of over 100 µM, a TGI [50] of over 100 µM and a TGI [51] of over 100 µM. It also gave a TGI [52] of over 100 µM, a TGI [53] of over 100 µM and a TGI [54] of over 100 µM. The TGI [55] was over 100 µM, the TGI [56] was over 100 µM and the TGI [57] was over 100 µM.

For `[O-][N+](=Nc1ccccc1CO)c1ccccc1CO`, the TGI [1] was over 100 µM, the TGI [2] was over 100 µM and the TGI [3] was over 100 µM. For the same compound, the TGI [5] was over 100 µM, the TGI [6] was over 100 µM and the TGI [7] was over 100 µM. The TGI [8] was over 100 µM, the TGI [9] was over 100 µM and the TGI [10] was over 100 µM. The TGI [11] was over 100 µM, the TGI [12] was over 100 µM and the TGI [13] was over 100 µM. It also gave a TGI [14] of over 100 µM, a TGI [16] of over 100 µM and a TGI [17] of over 100 µM. The TGI [19] was over 100 µM, the TGI [20] was over 100 µM and the TGI [21] was over 100 µM. It also gave a TGI [22] of over 100 µM, a TGI [23] of over 100 µM and a TGI [24] of over 100 µM. It also gave a TGI [25] of over 100 µM, a TGI [26] of over 100 µM and a TGI [27] of over 100 µM. The TGI [28] was over 100 µM, the TGI [29] was over 100 µM and the TGI [30] was over 100 µM. It also gave a TGI [31] of over 100 µM, a TGI [32] of over 100 µM and a TGI [33] of over 100 µM. It also gave a TGI [34] of over 100 µM, a TGI [35] of over 100 µM and a TGI [36] of over 100 µM. For the same compound, the TGI [37] was over 100 µM, the TGI [38] was over 100 µM and the TGI [39] was over 100 µM. The TGI [58] was over 100 µM, the TGI [40] was over 100 µM and the TGI [42] was over 100 µM. The TGI [43] was over 100 µM, the TGI [44] was over 100 µM and the TGI [45] was over 100 µM. For the same compound, the TGI [46] was over 100 µM, the TGI [47] was over 100 µM and the TGI [48] was over 100 µM. The TGI [49] was over 100 µM, the TGI [50] was over 100 µM and the TGI [51] was over 100 µM. The TGI [52] was over 100 µM, the TGI [53] was over 100 µM and the TGI [54] was over 100 µM. It also gave a TGI [55] of over 100 µM, a TGI [56] of over 100 µM and a TGI [57] of over 100 µM.

`CN(C)c1ccc(/C=C2\N=C(NNc3ccccc3)NC2=O)cc1` gave a TGI [1] of 50.2 µM, a TGI [2] of 42.1 µM and a TGI [3] of over 100 µM. For the same compound, the TGI [4] was 61.9 µM, the TGI [5] was 83.2 µM and the TGI [6] was over 100 µM. It also gave a TGI [7] of over 100 µM, a TGI [8] of 29 µM and a TGI [9] of over 100 µM. For the same compound, the TGI [10] was 68.1 µM, the TGI [11] was 30.9 µM and the TGI [12] was over 100 µM. For the same compound, the TGI [13] was over 100 µM, the TGI [15] was over 100 µM and the TGI [59] was 51.3 µM. It also gave a TGI [16] of over 100 µM, a TGI [17] of over 100 µM and a TGI [18] of 80.6 µM. For the same compound, the TGI [20] was 32.6 µM, the TGI [21] was 92.4 µM and the TGI [22] was over 100 µM. The TGI [23] was over 100 µM, the TGI [24] was 41.9 µM and the TGI [25] was 40.1 µM. It also gave a TGI [26] of 59.1 µM, a TGI [27] of over 100 µM and a TGI [28] of over 100 µM. For the same compound, the TGI [30] was 65.3 µM, the TGI [31] was 52.7 µM and the TGI [32] was 57.1 µM. The TGI [33] was over 100 µM, the TGI [34] was 35 µM and the TGI [35] was over 100 µM. The TGI [36] was over 100 µM, the TGI [37] was over 100 µM and the TGI [38] was 29.3 µM. The TGI [39] was 40.1 µM, the TGI [58] was 78.9 µM and the TGI [40] was over 100 µM. It also gave a TGI [41] of 83.4 µM, a TGI [42] of 43.3 µM and a TGI [43] of 44 µM. It also gave a TGI [44] of 71.4 µM, a TGI [46] of over 100 µM and a TGI [47] of 44.6 µM. It also gave a TGI [48] of over 100 µM, a TGI [49] of 78.9 µM and a TGI [51] of 82.3 µM. It also gave a TGI [52] of 38.8 µM, a TGI [53] of 67.2 µM and a TGI [54] of 27.3 µM. For the same compound, the TGI [55] was 38.5 µM, the TGI [56] was over 100 µM and the TGI [57] was over 100 µM.

`COC(=O)C1C(O)CCC2CN3CCc4c([nH]c5ccccc45)C3CC21` (configuration not stated) was tested, and the TGI [1] was over 100 µM, the TGI [2] was over 100 µM and the TGI [3] was over 100 µM. For the same compound, the GI50 [4] was over 100 µM, the TGI [4] was over 100 µM and the TGI [5] was over 100 µM. The GI50 [6] was over 100 µM, the TGI [6] was over 100 µM and the TGI [8] was over 100 µM. For the same compound, the TGI [9] was over 100 µM, the TGI [10] was over 100 µM and the TGI [11] was over 100 µM. For the same compound, the TGI [12] was over 100 µM, the TGI [13] was over 100 µM and the GI50 [15] was over 100 µM. It also gave a TGI [15] of over 100 µM, a TGI [59] of over 100 µM and a TGI [16] of over 100 µM. For the same compound, the TGI [17] was over 100 µM, the TGI [18] was over 100 µM and the TGI [19] was over 100 µM. For the same compound, the TGI [20] was over 100 µM, the TGI [21] was over 100 µM and the TGI [22] was over 100 µM. For the same compound, the TGI [23] was over 100 µM, the TGI [24] was over 100 µM and the TGI [25] was over 100 µM. The TGI [26] was over 100 µM, the TGI [27] was over 100 µM and the GI50 [28] was > 100 µM and 14.4 µM. For the same compound, the TGI [28] was over 100 µM, the TGI [29] was over 100 µM and the TGI [30] was over 100 µM. The TGI [31] was over 100 µM, the TGI [32] was over 100 µM and the TGI [33] was over 100 µM. It also gave a TGI [34] of over 100 µM, a GI50 [35] of over 100 µM and a TGI [35] of over 100 µM. The TGI [36] was over 100 µM, the TGI [37] was over 100 µM and the TGI [38] was over 100 µM. The TGI [39] was over 100 µM, the TGI [58] was over 100 µM and the TGI [40] was over 100 µM. The TGI [41] was over 100 µM, the TGI [42] was over 100 µM and the TGI [43] was over 100 µM. It also gave a TGI [44] of over 100 µM, a TGI [45] of over 100 µM and a TGI [46] of over 100 µM. For the same compound, the TGI [47] was over 100 µM, the GI50 [48] was over 100 µM and the TGI [48] was over 100 µM. It also gave a TGI [49] of over 100 µM, a TGI [51] of over 100 µM and a TGI [52] of over 100 µM. It also gave a TGI [53] of over 100 µM, a TGI [54] of over 100 µM and a TGI [55] of over 100 µM. The TGI [56] was over 100 µM and the TGI [57] was over 100 µM.
